Conditions: 6 mg continuous, regimen 2 (n = 78)

COc1cc(OC)cc(N(CCNC(C)C)c2ccc3ncc(-c4cnn(C)c4)nc3c2)c1 [erdafitinib, N-(3,5-dimethoxy-phenyl)-N′-(1-methylethyl)-N-[3-(1-methyl-1H-pyrazol-4-yl)quinoxalin-6-yl]ethane-1,2-diamine]
Patients with Abdominal pain, Any grade: 14 (18) no. (%) | Patients with Abdominal pain, Grade 1: 7 (9) no. (%) | Patients with Abdominal pain, Grade 2: 5 (6) no. (%) | Patients with Abdominal pain, Grade ≥3: 2 (3) no. (%) | Patients with Alanine aminotransferase increased, Any grade: 9 (12) no. (%) | Patients with Alanine aminotransferase increased, Grade 1: 7 (9) no. (%) | Patients with Alanine aminotransferase increased, Grade 2: 2 (3) no. (%) | Patients with Alanine aminotransferase increased, Grade ≥3: 0 no. (%) | Patients with Alopecia, Any grade: 10 (13) no. (%) | Patients with Alopecia, Grade 1: 9 (12) no. (%) | Patients with Alopecia, Grade 2: 1 (1) no. (%) | Patients with Alopecia, Grade ≥3: 0 no. (%) | Patients with Anemia, Any grade: 13 (17) no. (%) | Patients with Anemia, Grade 1: 0 no. (%) | Patients with Anemia, Grade 2: 8 (10) no. (%) | Patients with Anemia, Grade ≥3: 5 (6) no. (%) | Patients with Arthralgia, Any grade: 8 (10) no. (%) | Patients with Arthralgia, Grade 1: 5 (6) no. (%) | Patients with Arthralgia, Grade 2: 2 (3) no. (%) | Patients with Arthralgia, Grade ≥3: 1 (1) no. (%) | Patients with Aspartate aminotransferase increased, Any grade: 9 (12) no. (%) | Patients with Aspartate aminotransferase increased, Grade 1: 7 (9) no. (%) | Patients with Aspartate aminotransferase increased, Grade 2: 2 (3) no. (%) | Patients with Aspartate aminotransferase increased, Grade ≥3: 0 no. (%) | Patients with Asthenia, Any grade: 18 (23) no. (%) | Patients with Asthenia, Grade 1: 5 (6) no. (%) | Patients with Asthenia, Grade 2: 4 (5) no. (%) | Patients with Asthenia, Grade ≥3: 9 (12) no. (%) | Patients with Back pain, Any grade: 11 (14) no. (%) | Patients with Back pain, Grade 1: 6 (8) no. (%) | Patients with Back pain, Grade 2: 3 (4) no. (%) | Patients with Back pain, Grade ≥3: 2 (3) no. (%) | Patients with Blood creatinine increased, Any grade: 6 (8) no. (%) | Patients with Blood creatinine increased, Grade 1: 3 (4) no. (%) | Patients with Blood creatinine increased, Grade 2: 3 (4) no. (%) | Patients with Blood creatinine increased, Grade ≥3: 0 no. (%) | Patients with Conjunctivitis, Any grade: 7 (9) no. (%) | Patients with Conjunctivitis, Grade 1: 4 (5) no. (%) | Patients with Conjunctivitis, Grade 2: 2 (3) no. (%) | Patients with Conjunctivitis, Grade ≥3: 1 (1) no. (%) | Patients with Constipation, Any grade: 20 (26) no. (%) | Patients with Constipation, Grade 1: 10 (13) no. (%) | Patients with Constipation, Grade 2: 10 (13) no. (%) | Patients with Constipation, Grade ≥3: 0 no. (%) | Patients with Decreased appetite, Any grade: 29 (37) no. (%) | Patients with Decreased appetite, Grade 1: 12 (15) no. (%) | Patients with Decreased appetite, Grade 2: 13 (17) no. (%) | Patients with Decreased appetite, Grade ≥3: 4 (5) no. (%) | Patients with Diarrhea, Any grade: 39 (50) no. (%) | Patients with Diarrhea, Grade 1: 24 (31) no. (%) | Patients with Diarrhea, Grade 2: 15 (19) no. (%) | Patients with Diarrhea, Grade ≥3: 0 no. (%) | Patients with Dry eye, Any grade: 6 (8) no. (%) | Patients with Dry eye, Grade 1: 3 (4) no. (%) | Patients with Dry eye, Grade 2: 2 (3) no. (%) | Patients with Dry eye, Grade ≥3: 1 (1) no. (%) | Patients with Dry mouth, Any grade: 31 (40) no. (%) | Patients with Dry mouth, Grade 1: 23 (30) no. (%) | Patients with Dry mouth, Grade 2: 6 (8) no. (%) | Patients with Dry mouth, Grade ≥3: 2 (3) no. (%) | Patients with Dry skin, Any grade: 18 (23) no. (%) | Patients with Dry skin, Grade 1: 10 (13) no. (%) | Patients with Dry skin, Grade 2: 8 (10) no. (%) | Patients with Dry skin, Grade ≥3: 0 no. (%) | Patients with Dysgeusia, Any grade: 10 (13) no. (%) | Patients with Dysgeusia, Grade 1: 6 (8) no. (%) | Patients with Dysgeusia, Grade 2: 4 (5) no. (%) | Patients with Dysgeusia, Grade ≥3: 0 no. (%) | Patients with Dyspepsia, Any grade: 9 (12) no. (%) | Patients with Dyspepsia, Grade 1: 6 (8) no. (%) | Patients with Dyspepsia, Grade 2: 3 (4) no. (%) | Patients with Dyspepsia, Grade ≥3: 0 no. (%) | Patients with Dyspnea, Any grade: 6 (7) no. (%) | Patients with Dyspnea, Grade 1: 1 (1) no. (%) | Patients with Dyspnea, Grade 2: 3 (4) no. (%) | Patients with Dyspnea, Grade ≥3: 2 (3) no. (%) | Patients with Fatigue, Any grade: 20 (26) no. (%) | Patients with Fatigue, Grade 1: 8 (10) no. (%) | Patients with Fatigue, Grade 2: 8 (10) no. (%) | Patients with Fatigue, Grade ≥3: 4 (5) no. (%) | Patients with Hand-foot syndrome, Any grade: 13 (17) no. (%) | Patients with Hand-foot syndrome, Grade 1: 4 (5) no. (%) | Patients with Hand-foot syndrome, Grade 2: 9 (12) no. (%) | Patients with Hand-foot syndrome, Grade ≥3: 0 no. (%) | Patients with Hematuria, Any grade: 6 (8) no. (%) | Patients with Hematuria, Grade 1: 5 (6) no. (%) | Patients with Hematuria, Grade 2: 0 no. (%) | Patients with Hematuria, Grade ≥3: 1 (1) no. (%) | Patients with Hyperphosphatemia, Any grade: 52 (67) no. (%) | Patients with Hyperphosphatemia, Grade 1: 44 (56) no. (%) | Patients with Hyperphosphatemia, Grade 2: 8 (10) no. (%) | Patients with Hyperphosphatemia, Grade ≥3: 0 no. (%) | Patients with Hypomagnesemia, Any grade: 6 (8) no. (%) | Patients with Hypomagnesemia, Grade 1: 6 (8) no. (%) | Patients with Hypomagnesemia, Grade 2: 0 no. (%) | Patients with Hypomagnesemia, Grade ≥3: 0 no. (%) | Patients with Hyponatremia, Any grade: 7 (9) no. (%) | Patients with Hyponatremia, Grade 1: 2 (3) no. (%) | Patients with Hyponatremia, Grade 2: 0 no. (%) | Patients with Hyponatremia, Grade ≥3: 5 (6) no. (%) | Patients with Insomnia, Any grade: 8 (10) no. (%) | Patients with Insomnia, Grade 1: 4 (5) no. (%) | Patients with Insomnia, Grade 2: 2 (3) no. (%) | Patients with Insomnia, Grade ≥3: 2 (3) no. (%) | Patients with Lacrimation increased, Any grade: 13 (17) no. (%) | Patients with Lacrimation increased, Grade 1: 10 (13) no. (%) | Patients with Lacrimation increased, Grade 2: 3 (4) no. (%) | Patients with Lacrimation increased, Grade ≥3: 0 no. (%) | Patients with Nail dystrophy, Any grade: 7 (9) no. (%) | Patients with Nail dystrophy, Grade 1: 6 (8) no. (%) | Patients with Nail dystrophy, Grade 2: 1 (1) no. (%) | Patients with Nail dystrophy, Grade ≥3: 0 no. (%) | Patients with Nausea, Any grade: 16 (21) no. (%) | Patients with Nausea, Grade 1: 11 (14) no. (%) | Patients with Nausea, Grade 2: 4 (5) no. (%) | Patients with Nausea, Grade ≥3: 1 (1) no. (%) | Patients with Onycholysis, Any grade: 13 (17) no. (%) | Patients with Onycholysis, Grade 1: 2 (3) no. (%) | Patients with Onycholysis, Grade 2: 6 (8) no. (%) | Patients with Onycholysis, Grade ≥3: 5 (6) no. (%) | Patients with Onychomadesis, Any grade: 8 (10) no. (%) | Patients with Onychomadesis, Grade 1: 2 (3) no. (%) | Patients with Onychomadesis, Grade 2: 6 (8) no. (%) | Patients with Onychomadesis, Grade ≥3: 0 no. (%) | Patients with Oropharyngeal pain, Any grade: 8 (10) no. (%) | Patients with Oropharyngeal pain, Grade 1: 5 (6) no. (%) | Patients with Oropharyngeal pain, Grade 2: 3 (4) no. (%) | Patients with Oropharyngeal pain, Grade ≥3: 0 no. (%) | Patients with Pain in extremity, Any grade: 9 (12) no. (%) | Patients with Pain in extremity, Grade 1: 2 (3) no. (%) | Patients with Pain in extremity, Grade 2: 6 (8) no. (%) | Patients with Pain in extremity, Grade ≥3: 1 (1) no. (%) | Patients with Paronychia, Any grade: 12 (15) no. (%) | Patients with Paronychia, Grade 1: 2 (3) no. (%) | Patients with Paronychia, Grade 2: 10 (13) no. (%) | Patients with Paronychia, Grade ≥3: 0 no. (%) | Patients with Peripheral edema, Any grade: 6 (8) no. (%) | Patients with Peripheral edema, Grade 1: 2 (3) no. (%) | Patients with Peripheral edema, Grade 2: 3 (4) no. (%) | Patients with Peripheral edema, Grade ≥3: 1 (1) no. (%) | Patients with Pyrexia, Any grade: 14 (18) no. (%) | Patients with Pyrexia, Grade 1: 8 (10) no. (%) | Patients with Pyrexia, Grade 2: 3 (4) no. (%) | Patients with Pyrexia, Grade ≥3: 3 (4) no. (%) | Patients with Retinal detachment, Any grade: 8 (10) no. (%) | Patients with Retinal detachment, Grade 1: 5 (6) no. (%) | Patients with Retinal detachment, Grade 2: 3 (4) no. (%) | Patients with Retinal detachment, Grade ≥3: 0 no. (%) | Patients with Stomatitis, Any grade: 33 (42) no. (%) | Patients with Stomatitis, Grade 1: 13 (17) no. (%) | Patients with Stomatitis, Grade 2: 13 (17) no. (%) | Patients with Stomatitis, Grade ≥3: 7 (9) no. (%) | Patients with Urinary tract infection, Any grade: 13 (17) no. (%) | Patients with Urinary tract infection, Grade 1: 0 no. (%) | Patients with Urinary tract infection, Grade 2: 9 (12) no. (%) | Patients with Urinary tract infection, Grade ≥3: 4 (5) no. (%) | Patients with Vision blurred, Any grade: 5 (6) no. (%) | Patients with Vision blurred, Grade 1: 3 (4) no. (%) | Patients with Vision blurred, Grade 2: 1 (1) no. (%) | Patients with Vision blurred, Grade ≥3: 1 (1) no. (%) | Patients with Vomiting, Any grade: 11 (14) no. (%) | Patients with Vomiting, Grade 1: 9 (12) no. (%) | Patients with Vomiting, Grade 2: 2 (3) no. (%) | Patients with Vomiting, Grade ≥3: 0 no. (%) | Patients with Weight decreased, Any grade: 8 (10) no. (%) | Patients with Weight decreased, Grade 1: 4 (5) no. (%) | Patients with Weight decreased, Grade 2: 2 (3) no. (%) | Patients with Weight decreased, Grade ≥3: 2 (3) no. (%) | Treatment-related adverse event: Alopecia, Any grade: 8 (10) no. (%) | Treatment-related adverse event: Alopecia, Grade 1: 8 (10) no. (%) | Treatment-related adverse event: Alopecia, Grade 2: 0 no. (%) | Treatment-related adverse event: Alopecia, Grade ≥3: 0 no. (%)
